In one assay the target is T1, proMMP9 (Homo sapiens, UniProt P14780).
T1 construct: host or cells: HFL-1 human fetal lung fibroblasts
Kind of assay: Activation of proMMP9 by human fetal lung fibroblast (HFL-1) cultures (Western blot). In kind it is cell-based. To be noted: 3.3 μM Compound α. The method, then: Activation of proMMP9 by Human Fetal Lung Fibroblast Cultures
Compound α was assessed additionally for ability to block the maturation of proMMP9 to active MMP9 in cultures of human fetal lung fibroblasts (HFL-1, American Type Culture Collection #CCL-153). Unlike rat synoviocytes, HFL-1 cells were unable to process proMMP9 to the active form without addition of neutrophil elastase. […] Rather, the function of elastase in this assay may be to inactivate tissue inhibitors of matrix metalloproteinases (TIMPs) that repress endogenous pathways of MMP9 activation (Am J Respir Crit. Care Med; 1999; 159:1138-46).
HLF-1 were maintained in monolayer culture in DMEM with 10% FCS and were used between passage numbers 5-15. HLF-1 were embedded in collagen gels as described for rat SCW synoviocytes (vida supra). Half mL gels containing 0.4 million cells were dislodged into wells of 12 well Costar plates containing 1 mL/well of DMEM adjusted to contain 0.05% BSA and 100 ng/mL human TNFα (R&D Systems Cat #210-TA/CF). After overnight culture (37° C. and 5% CO2) wells were adjusted to contain an additional 0.5 mL of DMEM containing 0.05% BSA and with or without 13.2 μM Compound α (final concentration was 3.3 μM Compound α). Next, cultures were adjusted to contain 30 nM human elastase (Innovative Research). The plates were cultured an additional 72 hrs, at which time MMP9 secreted into the conditioned media was bound to gelatin-sepharose and evaluated by Western blot analysis as described for the rat synoviocyte cultures (vida supra). mAb-51/82 detected three forms of MMP9 in HFL-1 cultures.
A second experiment was performed to determine if the 80 kD form was mature active MMP9 and to determine the potency of Compound α as an inhibitor of MMP9 maturation in this assay. HFL-1 cells embedded in collagen gels were cultured as described above in the presence of TNFα overnight and the cultures were then adjusted to contain 30 nM elastase and graded concentrations of Compound α for an additional 72 hrs at which time MMP9 secreted into the conditioned media was bound to gelatin-sepharose and evaluated by Western blot analysis for active MMP9 using pAb-1246 raised against the N-terminal neoepitope of active MMP9 (Table 5). In the absence of Compound α, pAb-1246 readily detected MMP9 with an electrophoretic mobility of approximately 80 kD. […] Inhibition occurred over a dose range with an IC50 of approximately 0.3 μM Compound α.
(In general: In western blotting, separated proteins are transferred to a membrane and probed.)

Assay [1] relates to rats with SCW-induced arthritis. Kind of assay: Efficacy in rats with SCW arthritis (ankle thickness, clinical scores). It is filed as in vivo, rat. From the text:
A polyarthritis can be induced in female Lewis rats following i.p. administration of streptococcal cell wall (SCW) proteoglycan-polysaccharides (PG-PS) (J Exp Med 1977; 146:1585-1602). The model has an acute phase (days 3-7) that is complement and neutrophil-dependent and that resolves. A chronic erosive phase begins at about day ten and is dependent on the development of specific T cell immunity to the PG-GS, which resists digestion and remains present in synovial macrophages for months. Like rheumatoid arthritis, SCW-induced arthritis is reduced by TNF inhibitors, and the dependence of SCW-induced arthritis on macrophages (Rheumatology; 2001; 40:978-987) and the strong association of rheumatoid arthritis severity with synovial-tissue macrophage counts (Ann Rheum Dis; 2005; 64:834-838) makes SCW-arthritis an attractive model for testing potential therapeutic agents. SCW PG-PS 10S (Beckton Dickinson Cat#210866) suspended in saline was vortexed for 30 seconds and sonicated for 3 min with a probe type sonicator prior to injection. Female Lewis (LEW/N) rats, 5-6 weeks of age (80-100 g) were injected (i.p.) with SCW PG-PS (15 μg of rhamnose/gram BW) in the lower left quadrant of the abdomen using a 1 mL syringe fitted with a 23-gauge needle. Control (disease-free) rats were treated in a similar manner with sterile saline. Control rats were sacrificed on day 5 and groups of SCW-injected rats were sacrificed on day 5 when acute inflammation was maximal or on day 18 when chronic inflammation was established.
To induce arthritis, Female Lewis (LEW/N) rats, 5-6 weeks of age (80-100 g) were injected (i.p.) with SCW PG-PS as described above. Eighteen days later, arthritis was well established. Calipers were used to measure the width (anterior to posterior surface) of the left and right hind ankles of each rat. Each ankle was measured 3 times and averaged, and treatment groups were randomized based on ankle thickness (Table 6). Commencing on day 18, randomized groups of arthritic rats (n=5 rats/group) received vehicle or 5, 20, or 50 mg/kg Compound α BID by oral gavage. Vehicle consisted of an aqueous mixture containing 2% (v:v) N-methylpyrrolidone, 5% (v:v) glycerine, and 20% (w:v) captisol. Treatment continued daily through the morning of day 26.
Hind paw inflammation clinical scores were assigned based on swelling and erythema.

The next assay concerns the target T2, MMP9 (Rattus norvegicus, UniProt P50282).
T2 construct: Pro and active MMP9 were abundantly present in ankles of SCW-induced vehicle-treated rats; from tissue; host or cells: tibia-tarsus joints (ankles) of female Lewis rats
The assay can be described thus: Active MMP9 in ankles of rats with SCW-induced arthritis by Western blot. In kind it is in vivo. To be noted: day 26, four hours after AM dose; FIG. 3A lanes 4-9. The method, then:
Hind-limbs were skinned, severed just above the tibia-tarsus joint and below the metatarsals, and the tibia-tarsus joints (ankles) were weighed, snap frozen and pulverized on dry ice using a hammer and anvil. The pulverized tissue was suspended in 3 volumes (w:v) of ice-cold homogenization buffer containing 50 mM Tris pH 7.5, 150 mM NaCl, 5 mM EDTA, 1% Triton X100, 0.05% Brij 30, 10% dimethylsulfoxide and Complete EDTA-free Protease Inhibitor Cocktail (Roche Diagnostics). The suspended tissue was homogenized sequentially with a Kinematica AG Polytron and a Dounce homogenizer. Homogenates were centrifuged at 16,000×g for 10 min at 4° C. and the soluble fractions were saved. Dimethylsulfoxide was removed from a portion of each soluble fraction using PD MiniTrap™ G-25 desalting columns (GE Healthcare). Homogenates (0.25 mL), free of DMSO, were diluted with an equal volume of binding buffer (i.e., homogenization buffer without dimethylsufoxide) and adjusted to contain 50 μL of a 50% slurry of gelatin-conjugated sepharose. Following 2 hours of rotation at 4° C. the beads were washed twice in binding buffer and eluted in 100 μL 2×-reducing Laemmli buffer with heating to 95° C. for 5 minutes. […]

T1 sequence (P14780 20-707 limits assumed): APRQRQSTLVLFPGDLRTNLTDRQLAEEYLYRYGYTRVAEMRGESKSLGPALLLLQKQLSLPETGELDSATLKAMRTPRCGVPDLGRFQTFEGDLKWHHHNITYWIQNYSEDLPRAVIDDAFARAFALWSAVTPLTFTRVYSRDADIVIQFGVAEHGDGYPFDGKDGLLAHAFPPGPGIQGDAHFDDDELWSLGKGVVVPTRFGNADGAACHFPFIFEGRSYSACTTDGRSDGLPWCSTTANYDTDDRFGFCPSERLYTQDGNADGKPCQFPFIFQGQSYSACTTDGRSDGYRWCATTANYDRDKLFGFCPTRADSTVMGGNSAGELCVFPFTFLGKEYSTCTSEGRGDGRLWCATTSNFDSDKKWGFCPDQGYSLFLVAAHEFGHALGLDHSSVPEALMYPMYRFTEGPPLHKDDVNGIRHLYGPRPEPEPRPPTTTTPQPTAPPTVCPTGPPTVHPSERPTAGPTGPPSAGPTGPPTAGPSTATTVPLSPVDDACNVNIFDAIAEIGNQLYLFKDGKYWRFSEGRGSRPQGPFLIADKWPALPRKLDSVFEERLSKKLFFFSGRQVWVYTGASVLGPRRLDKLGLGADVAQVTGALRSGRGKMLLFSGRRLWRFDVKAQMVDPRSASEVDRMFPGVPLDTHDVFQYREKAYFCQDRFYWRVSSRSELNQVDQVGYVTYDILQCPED
T2 sequence (P50282 108-708): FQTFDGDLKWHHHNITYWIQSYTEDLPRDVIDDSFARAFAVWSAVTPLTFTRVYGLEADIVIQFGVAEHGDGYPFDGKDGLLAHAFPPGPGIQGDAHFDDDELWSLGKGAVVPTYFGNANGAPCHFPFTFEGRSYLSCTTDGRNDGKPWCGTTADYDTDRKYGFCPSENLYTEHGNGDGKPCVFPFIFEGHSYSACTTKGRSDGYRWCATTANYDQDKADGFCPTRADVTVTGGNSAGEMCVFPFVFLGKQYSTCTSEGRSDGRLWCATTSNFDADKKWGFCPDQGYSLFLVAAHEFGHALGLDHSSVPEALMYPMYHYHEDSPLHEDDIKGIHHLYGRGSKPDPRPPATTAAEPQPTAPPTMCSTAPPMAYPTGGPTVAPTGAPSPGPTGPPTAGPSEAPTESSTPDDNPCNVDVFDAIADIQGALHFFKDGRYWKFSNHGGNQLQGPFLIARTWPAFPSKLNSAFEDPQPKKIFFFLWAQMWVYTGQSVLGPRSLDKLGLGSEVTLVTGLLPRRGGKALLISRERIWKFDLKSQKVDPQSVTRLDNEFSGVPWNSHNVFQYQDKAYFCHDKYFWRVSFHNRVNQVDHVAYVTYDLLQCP

Turning to `Cc1nc(C)c(-c2csc(Nc3cc(S(N)(=O)=O)ccc3OC(C)C)n2)s1` [Compound α, 3-(2′,4′-Dimethyl-[4,5′]bithiazolyl-2-ylamino)-4-isopropoxy-benzenesulfonamide.HBr], at proMMP9, the “Percent of total signal 80 kD” value is recorded as 7%, the “Percent of total signal 86 kD” value was 47% and the “Percent of total signal 100 kD” value is listed as 46%. For the same compound, on proMMP9 (30 nM elastase, 72 hrs, mAb-L51/82), the “Signal Total” value was determined as 91346 INT*mm^2. Further, in assay [1] (5, 20, 50 mg/kg BID oral, Day 18-26), the ankle thickness measurements result was “dose-dependent decrease”. Also, in assay [1] (5, 20, 50 mg/kg BID oral, significant effects emerging at 20 mg/kg), the clinical score measurements entry was “dose dependent decrease”. In assay [1] (Rattus norvegicus, 5 mg/kg BID oral, Day 18-26, read-out: Day 26 % Inh of disease associated increase in ankle thickness), the inhibition at 5 mg/kg worked out at 27%. For the same compound, the inhibition at 20 mg/kg in assay [1] (Rattus norvegicus, 20 mg/kg BID oral, Day 18-26, read-out: Day 26 % Inh of disease associated increase in ankle thickness) was found to be 37%. Further, the inhibition at 50 mg/kg in assay [1] (Rattus norvegicus, 50 mg/kg BID oral, Day 18-26, read-out: Day 26 % Inh of disease associated increase in ankle thickness) stood at 46%. Moreover, the “abundance of proMMP9 in ankles” value at MMP9 is on record as “did not reduce”.

Values taken from US20120302569A1, “PHENYL-THIAZOLYL INHIBITORS OF PRO-MATRIX METALLOPROTEINASE ACTIVATION” (priority 2011, published 2012).
